The results in this text go back to publication PMC2941766 (Molecular pharmaceutics, 2010).

SMILES strings stand for the structures.

Common to all, as to format: in vitro ADME
One data set addresses T1, UGT1A1 (Homo sapiens, UniProt P22309).
T1 sequence (P22309 26-533): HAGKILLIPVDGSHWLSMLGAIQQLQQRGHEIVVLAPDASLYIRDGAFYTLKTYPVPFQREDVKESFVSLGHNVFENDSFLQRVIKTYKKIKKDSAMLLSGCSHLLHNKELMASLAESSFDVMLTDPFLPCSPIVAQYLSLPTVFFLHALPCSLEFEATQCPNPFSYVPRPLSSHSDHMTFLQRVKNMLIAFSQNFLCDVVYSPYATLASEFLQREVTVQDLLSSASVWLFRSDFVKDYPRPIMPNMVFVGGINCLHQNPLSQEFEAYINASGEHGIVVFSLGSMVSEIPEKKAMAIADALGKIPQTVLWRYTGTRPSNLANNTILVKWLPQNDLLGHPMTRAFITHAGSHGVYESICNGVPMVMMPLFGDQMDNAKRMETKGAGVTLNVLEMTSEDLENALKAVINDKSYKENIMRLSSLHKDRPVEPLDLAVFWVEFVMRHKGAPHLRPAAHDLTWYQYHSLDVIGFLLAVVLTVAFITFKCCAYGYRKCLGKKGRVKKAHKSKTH
The data set can be described thus: Glucuronidation by expressed human UGT1A1. Conditions: human, pH 7.4.

Another data set deals with T2, UGT2B7 (Homo sapiens, UniProt P16662).
T2 sequence (P16662 24-529): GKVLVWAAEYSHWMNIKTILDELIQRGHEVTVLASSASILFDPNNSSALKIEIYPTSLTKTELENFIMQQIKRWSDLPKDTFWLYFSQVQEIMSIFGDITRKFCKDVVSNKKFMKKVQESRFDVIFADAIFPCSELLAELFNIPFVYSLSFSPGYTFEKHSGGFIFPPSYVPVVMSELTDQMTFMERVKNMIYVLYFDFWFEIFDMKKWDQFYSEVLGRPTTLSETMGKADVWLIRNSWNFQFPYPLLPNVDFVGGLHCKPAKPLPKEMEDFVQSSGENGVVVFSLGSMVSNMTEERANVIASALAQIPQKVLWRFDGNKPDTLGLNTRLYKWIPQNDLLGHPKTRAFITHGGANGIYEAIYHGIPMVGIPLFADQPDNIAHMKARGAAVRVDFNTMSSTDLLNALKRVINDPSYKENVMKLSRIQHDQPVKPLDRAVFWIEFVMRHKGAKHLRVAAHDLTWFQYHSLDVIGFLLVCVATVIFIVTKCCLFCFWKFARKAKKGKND
The data set can be described thus: Glucuronidation by expressed human UGT2B7. Conditions: for glucuronidation rate: human, pH 7.4.

The nature of data set [1]: Glucuronidation by pooled human intestinal microsomes. Conditions: human, 2.5 μM, pH 7.4.
A short description of data set [2]: Glucuronidation by pooled human liver microsomes. The conditions noted are these: human, 2.5 μM, pH 7.4.
Another data set addresses T3, UGT1A8 (Homo sapiens, UniProt Q9HAW9).
T3 sequence (Q9HAW9 26-530): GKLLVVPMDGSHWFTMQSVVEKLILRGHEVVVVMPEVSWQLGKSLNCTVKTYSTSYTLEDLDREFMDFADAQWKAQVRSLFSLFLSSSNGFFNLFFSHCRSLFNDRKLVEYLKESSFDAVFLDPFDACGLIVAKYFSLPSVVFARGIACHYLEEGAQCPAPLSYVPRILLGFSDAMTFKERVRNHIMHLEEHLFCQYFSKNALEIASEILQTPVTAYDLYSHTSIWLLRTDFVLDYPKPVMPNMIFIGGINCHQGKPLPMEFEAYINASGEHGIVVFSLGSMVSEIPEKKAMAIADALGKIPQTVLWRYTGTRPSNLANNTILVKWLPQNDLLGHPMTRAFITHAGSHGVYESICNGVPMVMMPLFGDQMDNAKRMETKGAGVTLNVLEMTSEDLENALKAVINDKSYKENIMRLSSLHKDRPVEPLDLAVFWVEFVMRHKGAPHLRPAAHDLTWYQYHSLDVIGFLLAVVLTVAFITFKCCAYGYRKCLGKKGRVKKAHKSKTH
The data set is described as follows: Glucuronidation by expressed human UGT1A8. Conditions: human, 2.5 μM, pH 7.4.

The target in another data set is T4, UGT1A9 (Homo sapiens, UniProt O60656).
T4 sequence (O60656 26-530): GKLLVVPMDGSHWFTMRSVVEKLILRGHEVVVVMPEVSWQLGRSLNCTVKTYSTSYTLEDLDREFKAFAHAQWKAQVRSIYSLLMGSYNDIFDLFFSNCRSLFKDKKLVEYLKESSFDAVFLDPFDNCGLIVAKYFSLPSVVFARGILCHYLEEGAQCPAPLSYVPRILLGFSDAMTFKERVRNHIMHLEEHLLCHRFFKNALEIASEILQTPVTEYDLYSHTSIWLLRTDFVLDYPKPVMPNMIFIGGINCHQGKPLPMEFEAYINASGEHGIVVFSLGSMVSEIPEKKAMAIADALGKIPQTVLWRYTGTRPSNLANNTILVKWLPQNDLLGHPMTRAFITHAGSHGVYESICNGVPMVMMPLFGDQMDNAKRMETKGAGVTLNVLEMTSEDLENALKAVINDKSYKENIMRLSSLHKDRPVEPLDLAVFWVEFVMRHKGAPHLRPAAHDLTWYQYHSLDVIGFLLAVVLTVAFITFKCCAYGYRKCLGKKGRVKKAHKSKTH
The data set can be described thus: Glucuronidation by expressed human UGT1A9. Conditions: human, 2.5 μM, pH 7.4.

In another data set the target is T5, UGT1A7 (Homo sapiens, UniProt Q9HAW7).
T5 sequence (Q9HAW7 26-530): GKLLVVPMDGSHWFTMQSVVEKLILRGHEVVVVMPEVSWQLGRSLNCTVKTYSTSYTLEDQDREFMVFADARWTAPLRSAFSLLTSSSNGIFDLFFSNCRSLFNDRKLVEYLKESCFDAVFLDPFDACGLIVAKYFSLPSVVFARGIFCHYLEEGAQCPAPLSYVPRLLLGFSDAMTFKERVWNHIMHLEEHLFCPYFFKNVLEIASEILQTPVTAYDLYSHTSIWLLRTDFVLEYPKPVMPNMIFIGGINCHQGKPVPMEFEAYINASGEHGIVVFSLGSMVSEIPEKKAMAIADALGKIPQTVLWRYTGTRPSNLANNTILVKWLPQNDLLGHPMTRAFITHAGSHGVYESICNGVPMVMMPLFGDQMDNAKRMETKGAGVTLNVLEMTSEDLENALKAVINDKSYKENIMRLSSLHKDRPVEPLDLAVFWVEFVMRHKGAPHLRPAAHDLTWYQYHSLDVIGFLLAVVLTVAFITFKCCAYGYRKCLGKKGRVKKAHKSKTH
The data set is described as follows: Glucuronidation by expressed human UGT1A7. Conditions: human, 2.5 μM, pH 7.4.

For another data set, the target named is T6, UGT1A10 (Homo sapiens, UniProt Q9HAW8).
T6 sequence (Q9HAW8 26-530): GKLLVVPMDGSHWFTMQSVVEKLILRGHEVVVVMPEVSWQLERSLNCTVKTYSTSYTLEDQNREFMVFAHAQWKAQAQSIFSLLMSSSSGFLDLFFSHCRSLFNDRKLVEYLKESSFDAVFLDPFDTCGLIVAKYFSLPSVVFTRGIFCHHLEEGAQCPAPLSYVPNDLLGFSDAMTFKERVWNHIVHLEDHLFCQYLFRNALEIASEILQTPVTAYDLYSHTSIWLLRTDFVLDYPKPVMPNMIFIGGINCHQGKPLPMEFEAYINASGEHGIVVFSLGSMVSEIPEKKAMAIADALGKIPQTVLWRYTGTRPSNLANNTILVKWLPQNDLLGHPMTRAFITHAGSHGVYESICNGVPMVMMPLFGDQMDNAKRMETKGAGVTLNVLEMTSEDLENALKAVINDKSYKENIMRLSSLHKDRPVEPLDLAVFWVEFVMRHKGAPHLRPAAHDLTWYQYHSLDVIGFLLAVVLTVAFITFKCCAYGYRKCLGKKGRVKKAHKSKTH
The data set is described as follows: Glucuronidation by expressed human UGT1A10. Conditions: human, 10 μM, pH 7.4.

`O=c1cc(-c2ccccc2)oc2cccc(O)c12` [5-HF, 5-hydroxyflavone]: the glucuronidation rate is given as 0.28±0.00 nmol per min per mg of protein at UGT1A1 (2.5 μM); 0.28±0.01 nmol per min per mg of protein on UGT1A1 (10 μM); 0.308±0.02 nmol per min per mg of protein on UGT1A1 (35 μM); 0.20±0.01 nmol per min per mg of protein on UGT2B7 (2.5 μM); 0.40±0.02 nmol per min per mg of protein on UGT2B7 (10 μM); 0.11±0.00 nmol per min per mg of protein on UGT2B7 (35 μM). Further, the glucuronidation rate is on record as 0.49±0.06 nmol per min per mg of protein in data set [1]; 0.00±0.00 nmol per min per mg of protein in data set [2]; 0.28±0.04 nmol per min per mg of protein on UGT1A8; 0.29±0.01 nmol per min per mg of protein on UGT1A9; 0 nmol per min per mg of protein on UGT1A7; 0.12±0.01 nmol per min per mg of protein at UGT1A10. The “substrate of UGT2B7” value on UGT2B7 is “substrates”.
